Laboratory results published in patent US4335136A, “Anti-inflammatory 4,5-diaryl-α-(polyfluoroalkyl)-1H-pyrrole-2-methanamines” (E. I. Du Pont de Nemours and Company, priority 1981, dated 1982).

What was measured:
[1] = test system: adjuvant-induced arthritis in rats; assay: Established Adjuvant-Induced Arthritis in Rats; assay type: in vivo, Lewis (Wistar) male rats; conditions: rat; for ED50: oral gavage once daily for 7 days (days 14-20), paw volume of uninjected left hind paw on day 21, ED50 % estimated by inspection, read-out: Adjuvant Arthritic ED 50; for Percent decrease from control mean paw volume (in parentheses after the ED50 bound): oral once daily for 7 days, presumably at the bounding dose
[2] = test system: phenylquinone writhing in mice; assay: Phenylquinone writhing test; assay type: in vivo, female white mice; conditions: Mus musculus, 0.5 h; fasted female mice, oral; phenylquinone i.p. 24 minutes later; observed for 10 minutes from 30 minutes after dosing; read-out: Analgesic Phenylquinone Writhing ED50
Experimental: PHENYLQUINONE WRITHING TEST
The phenylquinone writhing test, modified from Siegmund, et al., Proc. Soc. Exp. Biol. Med., 95, 729 (1957), was employed. A test compound suspended in 1% methylcellulose was given orally to fasted (17-21 hours) female white mice, 5-20 animals per double blind test. Aqueous (0.01% phenyl-p-benzoquinone) phenylquinone was injected intraperitoneally 24 minutes later using 0.20 ml per mouse. […] The effective analgesic dose for 50% of the mice (ED50) was calculated by the moving average method of Thompson, W. R., Bact. Rev., 11, 115-145 (1947).

**Q.** What does the source list for `NC(c1cc(-c2ccc(F)cc2)c(-c2ccc(F)cc2)[nH]1)(C(F)(F)F)C(F)(F)F` [Example 1, 4,5-Bis(4-fluorophenyl)-α,α-bis(trifluoromethyl)-1H-pyrrole-2-methanamine]?
**A.** ED50 [1]: 0.45 mg/kg; ED50 [2]: 27 mg/kg

**Q.** `NC(c1cc(-c2ccc(F)cc2)c(-c2ccc(F)cc2)[nH]1)C(F)(F)F` (stereo not drawn) [Example 2, 4,5-Bis(4-fluorophenyl)-α-(trifluoromethyl)-1H-pyrrole-2-methanamine] was tested. Which ED50 [1] did it give?
**A.** The ED50 was > 25 mg/kg.

**Q.** And the “Percent decrease from control mean paw volume (in parentheses after the ED50 bound)” value ([1]; 25 mg/kg)?
**A.** Its value is 29%.

**Q.** `Cn1c(C(N)(C(F)(F)F)C(F)(F)F)cc(-c2ccc(F)cc2)c1-c1ccc(F)cc1` [Example 3] was tested. Which ED50 [1] did it give?
**A.** The ED50 was 2.6 mg/kg.

**Q.** What about the ED50 [2] of the same compound?
**A.** Its ED50 is > 108 mg/kg.

**Q.** With `COc1ccc(-c2cc(C(N)(C(F)(F)F)C(F)(F)F)[nH]c2-c2ccc(OC)cc2)cc1` [Example 4] as the compound, how does the ED50 [1] read?
**A.** The ED50 was 3.3 mg/kg.

**Q.** What about the ED50 [2] of the same compound?
**A.** The ED50 was 45 mg/kg.

**Q.** Which results are given for `CNC(c1cc(-c2ccc(F)cc2)c(-c2ccc(F)cc2)[nH]1)(C(F)(F)F)C(F)(F)F` [Example 5, 4,5-Bis(4-fluorophenyl)-N-methyl-α,α-di(trifluoromethyl)-1H-pyrrole-2-methanamine]?
**A.** ED50 [1]: 0.8 mg/kg; ED50 [2]: > 108 mg/kg

**Q.** How did the ED50 [1] turn out when `NC(c1cc(-c2ccc(F)cc2)c(-c2ccc(Br)cc2)[nH]1)(C(F)(F)F)C(F)(F)F` [Example 6] was run?
**A.** Its ED50 is 3.4 mg/kg.

**Q.** What about the ED50 [2] of the same compound?
**A.** Its ED50 is > 108 mg/kg.

**Q.** Which ED50 [1] does the source give for `Cc1ccc(-c2cc(C(N)(C(F)(F)F)C(F)(F)F)[nH]c2-c2ccc(C)cc2)cc1` [Example 7] here?
**A.** The ED50 was > 9 mg/kg.

**Q.** And the “Percent decrease from control mean paw volume (in parentheses after the ED50 bound)” value ([1]; 9 mg/kg)?
**A.** Its value is 45%.

**Q.** What about the ED50 [2] of the same compound?
**A.** Its ED50 is > 108 mg/kg.

**Q.** For `Cc1c(C(N)(C(F)(F)F)C(F)(F)F)[nH]c(-c2ccc(F)cc2)c1-c1ccc(F)cc1` [Example 8], which ED50 [1] is on record?
**A.** Its ED50 is 0.77 mg/kg.

**Q.** What about the ED50 [2] of the same compound?
**A.** The ED50 was > 108 mg/kg.

**Q.** What does the source list for `CN(C)c1ccc(-c2[nH]c(C(N)(C(F)(F)F)C(F)(F)F)cc2-c2ccc(F)cc2)cc1` [Example 9]?
**A.** ED50 [1]: 4.9 mg/kg; ED50 [2]: > 108 mg/kg

**Q.** Which results are given for `NC(c1cc(-c2ccc(Cl)cc2)c(-c2ccc(Cl)cc2)[nH]1)(C(F)(F)F)C(F)(F)F` [Example 10]?
**A.** ED50 [1]: 4.4 mg/kg; ED50 [2]: > 108 mg/kg

**Q.** `NC(c1cc(-c2ccccc2)c(-c2ccccc2)[nH]1)(C(F)(F)F)C(F)(F)F` [Example 11] was tested. Which ED50 [1] did it give?
**A.** The ED50 was 20 mg/kg.

**Q.** What about the ED50 [2] of the same compound?
**A.** The ED50 was > 108 mg/kg.

**Q.** Which results are given for `NC(c1cc(-c2ccc(F)cc2)c(-c2cccnc2)[nH]1)(C(F)(F)F)C(F)(F)F` [Example 12]?
**A.** ED50 [1]: 12.5 mg/kg; ED50 [2]: > 108 mg/kg

**Q.** `NC(c1cc(-c2ccc(F)cc2)c(-c2ccc(F)cc2)n1Cc1ccccc1)(C(F)(F)F)C(F)(F)F` [Example 13] was tested. Which ED50 [1] did it give?
**A.** Its ED50 is > 25 mg/kg.

**Q.** What about the “Percent decrease from control mean paw volume (in parentheses after the ED50 bound)” value ([1]; 25 mg/kg) of the same compound?
**A.** The value was 24%.

**Q.** And the ED50 [2]?
**A.** Its ED50 is > 108 mg/kg.

**Q.** What does the source list for `CNC(c1cc(-c2ccc(F)cc2)c(-c2ccc(F)cc2)n1C)(C(F)(F)F)C(F)(F)F` [Example 14, 4,5-Bis(4-fluorophenyl)-N,1-dimethyl-α,α-di(trifluoromethyl)-1H-pyrrole-2-methanamine]?
**A.** ED50 [1]: 1 mg/kg; ED50 [2]: > 108 mg/kg

**Q.** How did the ED50 [1] turn out when `NC(c1cc(-c2ccc(F)cc2)c(-c2ccc(F)cc2)[nH]1)(C(F)(F)F)C(F)(F)Cl` (stereo not shown) [Example 15] was run?
**A.** Its ED50 is 0.7 mg/kg.
